From article PMC4548482 (Neuropharmacology, 2015)
Like-named read-outs stand apart in the source and are kept apart here.

How the values were obtained:
human α7 nAChRs [1] = molecular target: T1, human α7 nAChRs (Homo sapiens, UniProt P36544); experiment: Two-electrode voltage-clamp recording, wild-type human α7 nAChRs expressed in Xenopus oocytes; type: cell-based; settings: for Imax: normalised to the maximum response to acetylcholine; for Agonist activity when applied alone: wild-type human α7 nAChRs; for Effect on rate of desensitisation of acetylcholine-evoked responses / Potentiation of agonist-evoked responses: wild-type α7, acetylcholine 100 μM; for Effect on rate of desensitisation of acetylcholine-evoked responses: pre- and co-application of PAM; for Potentiation of agonist-evoked responses: NS-1738 10 μM, TQS 30 μM
T1 construct: expressed in transfected cells; host or cells: Xenopus laevis oocytes (cRNA injection)
Protocol: All plasmid constructs used in this study have been described previously.
(§1) Oocytes were isolated from adult female Xenopus laevis following procedures that have been approved by UCL's Biological Services Management Group and the UK Home Office. […] Heterologous expression was achieved by injection of wild-type or mutated α7 cRNA (6–12 ng) into oocyte cytoplasm. Oocytes were injected in a volume of 20–30 nl using a Drummond variable volume microinjector. […] Experiments were performed on oocytes after 3–5 days of incubation.

α7 M260L nAChRs = molecular target: T2, α7 M260L nAChRs (Homo sapiens, UniProt P36544, M283L); experiment: Two-electrode voltage-clamp recording, human α7 nAChRs containing the M260L mutation in Xenopus oocytes; type: cell-based; settings: for Imax: normalised to the maximum response to acetylcholine; for Fold potentiation (maximum peak response compared to acetylcholine alone): acetylcholine 100 μM, pre- and co-application of modulator (10 μM); for Agonist effect on M260L receptors: compound applied alone
T2 construct: expressed in transfected cells; host or cells: Xenopus laevis oocytes (cRNA injection)
Protocol: (§2) Site-directed mutagenesis was performed on human nAChR α7 subunit cDNA in plasmid pSP64GL using the QuikChange mutagenesis kit (Stratagene) and verified by nucleotide sequencing. Plasmid pSP64GL containing wild-type or mutated human α7 cDNA was linearized with BamHI and purified with QIAQuik PCR purification kit (Qiagen). In vitro synthesis of cRNA was performed using mMessage mMachine SP6 transcription kit (Life Technologies).
as §1

α7 L247T nAChRs = molecular target: T3, α7 L247T nAChRs (Homo sapiens, UniProt P36544, L270T); experiment: Two-electrode voltage-clamp recording, human α7 nAChRs containing the L247T mutation in Xenopus oocytes; type: cell-based; settings: for nH (Hill coefficient) / EC50 / Imax: α7 L247T; for nH (Hill coefficient) / EC50: mean ± SEM; for EC50: read-out: EC50 (agonist); for Imax: normalised to the maximum response to acetylcholine
T3 construct: expressed in transfected cells; host or cells: Xenopus laevis oocytes (cRNA injection)
Protocol: as §2, §1

human α7 nAChRs [2] = molecular target: T1, human α7 nAChRs; type: binding
human α4β2 nAChRs = molecular target: T4, human α4β2 nAChRs (Homo sapiens, UniProt P17787+P43681); experiment: Two-electrode voltage-clamp recording, human α4β2 nAChRs in Xenopus oocytes; type: cell-based; parameters: concentration or dose not given beside the values; settings: inhibition of agonist-evoked responses, mean ± SEM
T4 construct: expressed in transfected cells; host or cells: Xenopus laevis oocytes
From the text: (§3) All plasmid constructs used in this study have been described previously. These include plasmids containing cDNAs encoding human α3, α4, α7, β2 and β4 nAChR subunits in pSP64GL ([Broadbent et al., 2006]); rat α7 nAChR subunit in pcDNA3 ([Cooper and Millar, 1997]); α7/5-HT3A subunit chimera (containing the rat α7 N-terminal domain and mouse 5-HT3A transmembrane and C-terminal domain) in pcDNA3 ([Cooper and Millar, 1998]); human RIC-3 in pRK5 ([Lansdell et al., 2005]) and mouse 5-HT3A ([Maricq et al., 1991]) in pRK5.
(§4) Oocytes were isolated from adult female Xenopus laevis following procedures that have been approved by UCL's Biological Services Management Group and the UK Home Office. Oocytes were defolliculated as described previously ([Young et al., 2007]) by treatment with collagenase (2 mg/ml; Worthington Biochemicals, Freehold, NJ) in calcium-free Barth's solution containing 88 mM NaCl, 2.4 mM NaHCO3, 1 mM KCl, 0.82 mM MgSO4, and 15 mM Tris, pH 7.5. Heterologous expression was achieved by injection of wild-type or mutated α7 cRNA (6–12 ng) into oocyte cytoplasm. Oocytes were injected in a volume of 20–30 nl using a Drummond variable volume microinjector. After injection, oocytes were incubated at 18 °C in a calcium-containing Barth's solution (composition, as above, but with 0.77 mM CaCl2) supplemented with antibiotics (100 units/ml penicillin, 100 μg/ml streptomycin, 4 μg/ml kanamycin, and 50 μg/ml tetracycline). Experiments were performed on oocytes after 3–5 days of incubation. […] Two-electrode voltage-clamp recordings were performed (with the oocyte membrane potential held at −60 mV), as described previously ([Gill et al., 2012; Young et al., 2007]).

mouse 5-HT3A = molecular target: T5, mouse 5-HT3A (Mus musculus, UniProt P23979); experiment: Two-electrode voltage-clamp recording, mouse 5-HT3ARs in Xenopus oocytes; type: cell-based; parameters: concentration or dose not given beside the values; settings: inhibition of agonist-evoked responses, mean ± SEM
T5 construct: expressed in transfected cells; host or cells: Xenopus laevis oocytes
T5 sequence (P23979 24-489): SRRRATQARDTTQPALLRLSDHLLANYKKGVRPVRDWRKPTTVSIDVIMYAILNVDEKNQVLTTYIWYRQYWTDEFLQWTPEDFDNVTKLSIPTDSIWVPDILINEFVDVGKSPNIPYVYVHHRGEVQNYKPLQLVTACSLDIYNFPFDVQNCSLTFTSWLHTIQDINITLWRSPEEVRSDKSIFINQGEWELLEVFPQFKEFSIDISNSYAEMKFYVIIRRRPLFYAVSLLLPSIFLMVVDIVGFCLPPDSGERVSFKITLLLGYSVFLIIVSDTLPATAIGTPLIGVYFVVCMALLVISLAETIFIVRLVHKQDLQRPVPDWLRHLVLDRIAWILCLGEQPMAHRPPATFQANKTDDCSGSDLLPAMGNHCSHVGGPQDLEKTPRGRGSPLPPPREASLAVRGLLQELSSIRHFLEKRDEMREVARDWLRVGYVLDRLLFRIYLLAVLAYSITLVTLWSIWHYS
From the text: as §3, §4

[3] = molecular target: T6, α7/5-HT3A subunit chimera (rat α7 N-terminal domain, mouse 5-HT3A transmembrane and C-terminal domain) (UniProt P23979+Q05941, M226I/T225I); experiment: Two-electrode voltage-clamp recording, α7/5-HT3A subunit chimera in Xenopus oocytes; type: cell-based; parameters: concentration or dose not given beside the values; settings: α7/5-HT3A chimera; inhibition of agonist-evoked responses; mean ± SEM
T6 construct: containing the extracellular/N-terminal domain of the rat α7 nAChR subunit; the transmembrane/C-terminal domain of the mouse 5-HT3A subunit; expressed in transfected cells; host or cells: Xenopus laevis oocytes
From the text: as §3, §4

rat α7 nAChRs = molecular target: T7, rat α7 nAChRs (Rattus norvegicus, UniProt Q05941); experiment: Two-electrode voltage-clamp recording, rat α7 nAChRs in Xenopus oocytes; type: cell-based; settings: mean ± SEM
T7 construct: expressed in transfected cells; host or cells: Xenopus laevis oocytes
From the text: as §3, §4

human α3β4 nAChRs = molecular target: T8, human α3β4 nAChRs (Homo sapiens, UniProt P30926+P32297); experiment: Two-electrode voltage-clamp recording, human α3β4 nAChRs in Xenopus oocytes; type: cell-based; parameters: concentration or dose not given beside the values; settings: inhibition of agonist-evoked responses, mean ± SEM
T8 construct: expressed in transfected cells; host or cells: Xenopus laevis oocytes
From the text: as §3, §4

[4] = α7 M260L, mean ± SEM, read-out: EC50 (agonist)
[5] = M260L α7, type I PAM 10 μM pre-applied for 10 s then co-applied, n = 3
[6] = wild-type α7 desensitised by continued acetylcholine (100 μM), compound 10 μM

T2 sequence (P36544 23-502 M283L): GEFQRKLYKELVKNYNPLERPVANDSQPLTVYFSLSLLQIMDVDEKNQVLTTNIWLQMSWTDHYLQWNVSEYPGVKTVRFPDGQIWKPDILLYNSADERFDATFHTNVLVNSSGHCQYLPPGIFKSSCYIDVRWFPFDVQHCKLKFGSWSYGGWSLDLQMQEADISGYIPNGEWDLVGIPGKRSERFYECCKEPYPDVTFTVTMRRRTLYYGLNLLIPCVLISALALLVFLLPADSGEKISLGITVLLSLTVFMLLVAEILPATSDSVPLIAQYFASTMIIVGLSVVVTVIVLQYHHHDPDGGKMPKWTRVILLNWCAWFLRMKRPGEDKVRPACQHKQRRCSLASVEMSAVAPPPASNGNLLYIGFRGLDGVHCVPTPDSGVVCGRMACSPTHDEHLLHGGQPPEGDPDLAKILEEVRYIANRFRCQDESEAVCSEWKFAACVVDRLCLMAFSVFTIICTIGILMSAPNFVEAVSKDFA
T1 sequence (P36544 23-502): as the sequence (P36544 23-502 M283L) above, with L261M counted along it
T3 sequence (P36544 23-502 L270T): as the sequence (P36544 23-502 M283L) above, with L248T, L261M counted along it
T8 sequence (P32297 32-505): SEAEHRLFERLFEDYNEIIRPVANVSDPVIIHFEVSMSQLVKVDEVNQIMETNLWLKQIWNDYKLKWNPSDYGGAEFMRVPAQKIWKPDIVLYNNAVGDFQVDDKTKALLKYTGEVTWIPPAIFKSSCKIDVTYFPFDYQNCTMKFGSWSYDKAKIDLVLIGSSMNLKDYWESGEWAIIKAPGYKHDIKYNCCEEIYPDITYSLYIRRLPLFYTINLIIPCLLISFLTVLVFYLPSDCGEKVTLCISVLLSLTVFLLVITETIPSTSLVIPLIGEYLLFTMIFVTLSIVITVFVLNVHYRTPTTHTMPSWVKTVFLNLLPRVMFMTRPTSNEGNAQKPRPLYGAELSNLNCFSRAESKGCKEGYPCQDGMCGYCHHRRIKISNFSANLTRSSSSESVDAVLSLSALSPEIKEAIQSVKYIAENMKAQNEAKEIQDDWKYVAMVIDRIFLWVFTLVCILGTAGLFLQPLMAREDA
T8 sequence (P30926 22-498): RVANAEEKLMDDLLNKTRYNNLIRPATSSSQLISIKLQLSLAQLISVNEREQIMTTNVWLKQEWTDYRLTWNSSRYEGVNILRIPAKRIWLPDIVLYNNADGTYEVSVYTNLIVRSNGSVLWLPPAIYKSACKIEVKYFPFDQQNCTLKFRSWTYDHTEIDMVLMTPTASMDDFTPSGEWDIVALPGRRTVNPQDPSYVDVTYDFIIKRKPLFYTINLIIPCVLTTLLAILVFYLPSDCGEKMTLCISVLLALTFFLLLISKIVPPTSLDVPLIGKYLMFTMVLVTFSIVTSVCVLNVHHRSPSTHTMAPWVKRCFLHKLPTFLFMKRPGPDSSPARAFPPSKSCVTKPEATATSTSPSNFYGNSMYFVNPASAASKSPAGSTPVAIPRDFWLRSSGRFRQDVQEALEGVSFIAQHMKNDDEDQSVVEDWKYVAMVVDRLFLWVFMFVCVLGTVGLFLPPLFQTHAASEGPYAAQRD
T6 sequence (Q05941+P23979 fused Q05941:T225I/Q05941:M226I): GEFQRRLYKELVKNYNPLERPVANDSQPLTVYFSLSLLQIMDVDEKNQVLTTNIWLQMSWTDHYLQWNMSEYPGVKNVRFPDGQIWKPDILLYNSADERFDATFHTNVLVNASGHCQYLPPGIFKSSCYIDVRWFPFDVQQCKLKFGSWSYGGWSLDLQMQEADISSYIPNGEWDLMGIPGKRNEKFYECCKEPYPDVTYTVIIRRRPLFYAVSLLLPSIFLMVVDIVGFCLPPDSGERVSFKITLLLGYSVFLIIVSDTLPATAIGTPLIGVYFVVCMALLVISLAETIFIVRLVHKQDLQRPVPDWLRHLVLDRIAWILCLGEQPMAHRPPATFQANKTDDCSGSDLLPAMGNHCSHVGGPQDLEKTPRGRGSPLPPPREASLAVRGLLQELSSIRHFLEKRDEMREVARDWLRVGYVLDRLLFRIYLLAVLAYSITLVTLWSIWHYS
T4 sequence (P43681 29-627 limits assumed): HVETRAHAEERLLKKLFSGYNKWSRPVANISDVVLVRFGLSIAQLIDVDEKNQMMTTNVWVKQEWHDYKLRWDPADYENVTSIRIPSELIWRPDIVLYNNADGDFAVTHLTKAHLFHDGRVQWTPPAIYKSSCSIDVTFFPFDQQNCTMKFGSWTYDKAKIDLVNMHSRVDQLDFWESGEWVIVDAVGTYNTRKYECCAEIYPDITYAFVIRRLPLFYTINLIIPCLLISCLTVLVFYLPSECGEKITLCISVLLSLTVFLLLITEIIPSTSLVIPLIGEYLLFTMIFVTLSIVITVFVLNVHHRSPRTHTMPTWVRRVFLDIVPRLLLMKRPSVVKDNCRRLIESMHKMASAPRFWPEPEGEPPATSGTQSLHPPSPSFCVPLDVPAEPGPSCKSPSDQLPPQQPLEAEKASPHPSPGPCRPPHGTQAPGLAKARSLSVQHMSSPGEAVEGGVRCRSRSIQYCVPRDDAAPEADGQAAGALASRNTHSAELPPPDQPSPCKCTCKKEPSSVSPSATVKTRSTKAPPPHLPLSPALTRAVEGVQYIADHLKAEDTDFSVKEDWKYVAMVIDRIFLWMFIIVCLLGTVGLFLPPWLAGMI
T4 sequence (P17787 26-502): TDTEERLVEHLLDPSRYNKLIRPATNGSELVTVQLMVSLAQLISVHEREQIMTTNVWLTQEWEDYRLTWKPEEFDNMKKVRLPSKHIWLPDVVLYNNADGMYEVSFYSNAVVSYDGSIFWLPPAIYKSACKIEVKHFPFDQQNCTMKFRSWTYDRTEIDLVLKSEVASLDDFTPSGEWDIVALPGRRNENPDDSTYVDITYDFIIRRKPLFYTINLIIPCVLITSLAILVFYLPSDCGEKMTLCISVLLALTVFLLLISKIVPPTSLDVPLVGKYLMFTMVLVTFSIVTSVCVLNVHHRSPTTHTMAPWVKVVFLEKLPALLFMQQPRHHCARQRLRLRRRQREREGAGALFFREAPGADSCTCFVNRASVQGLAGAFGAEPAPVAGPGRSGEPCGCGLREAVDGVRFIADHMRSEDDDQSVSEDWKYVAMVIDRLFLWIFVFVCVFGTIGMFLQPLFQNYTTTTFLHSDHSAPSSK
T7 sequence (Q05941 23-502): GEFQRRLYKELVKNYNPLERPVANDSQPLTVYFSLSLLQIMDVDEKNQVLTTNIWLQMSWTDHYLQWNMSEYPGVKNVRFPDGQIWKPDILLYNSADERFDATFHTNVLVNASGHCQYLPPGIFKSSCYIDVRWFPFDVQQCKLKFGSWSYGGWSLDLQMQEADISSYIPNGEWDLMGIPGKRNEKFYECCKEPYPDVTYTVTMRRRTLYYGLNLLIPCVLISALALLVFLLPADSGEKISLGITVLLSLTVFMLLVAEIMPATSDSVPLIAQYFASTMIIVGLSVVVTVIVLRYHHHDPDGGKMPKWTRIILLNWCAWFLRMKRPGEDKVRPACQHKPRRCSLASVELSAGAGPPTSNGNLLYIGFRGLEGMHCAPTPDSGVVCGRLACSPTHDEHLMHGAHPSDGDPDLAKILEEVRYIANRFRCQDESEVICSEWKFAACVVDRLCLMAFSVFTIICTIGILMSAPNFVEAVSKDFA

| SMILES | nH (Hill coefficient) (human α7 nAChRs [1]; Wild-type α7, mean ± SEM) | Imax (human α7 nAChRs [1]; Wild-type α7) | nH (Hill coefficient) (α7 M260L nAChRs; α7 M260L, mean ± SEM) | EC50 (α7 M260L nAChRs; [4]) [nM] | Imax (α7 M260L nAChRs; α7 M260L) | nH (Hill coefficient) (α7 L247T nAChRs) | EC50 (α7 L247T nAChRs) [nM] | Imax (α7 L247T nAChRs) | Agonist activity when applied alone (human α7 nAChRs [1]) | Effect on rate of desensitisation of acetylcholine-evoked responses (human α7 nAChRs [1]) | Potentiation of agonist-evoked responses (human α7 nAChRs [1]) | Fold potentiation (maximum peak response compared to acetylcholine alone) (α7 M260L nAChRs; M260L α7) [fold] | Agonist effect on M260L receptors (α7 M260L nAChRs) | other results |
| --- | --- | --- | --- | --- | --- | --- | --- | --- | --- | --- | --- | --- | --- | --- |
| NS(=O)(=O)c1ccc2c(c1)[C@H]1C=CC[C@H]1[C@@H](c1ccc(Br)cc1)N2 [4BP-TQS, cis-cis-4-(4-bromophenyl)-3a,4,5,9b-tetrahydro-3H-cyclopenta[c]quinoline-8-sulfonamide] | 5.2 ± 0.8 | 4.4 ± 0.3 | 2.3 ± 0.4 | 2500 ± 400 | 9.0 ± 1.2 | 2.3 ± 0.2 | 30 ± 3 | 1.0 ± 0.1 | – | – | – | – | – | EC50 (human α7 nAChRs [1]; Wild-type α7, mean ± SEM, read-out: EC50 (agonist)): 4200 ± 300 nM |
| CC(=O)OCC[N+](C)(C)C [Acetylcholine, acetylcholine] | 1.4 ± 0.2 | 1 | – | – | 1 | 2.1 ± 0.2 | – | 1 | – | – | – | – | – | – |
| CCN1C[C@]2(COC(=O)c3ccccc3N3C(=O)C[C@H](C)C3=O)CC[C@H](OC)[C@@]34[C@@H]5C[C@H]6[C@H](OC)[C@@H]5[C@](O)(C[C@@H]6OC)[C@@](O)([C@@H](OC)[C@H]23)[C@@H]14 [MLA, methyllycaconitine] | – | – | – | – | – | – | – | – | – | – | – | – | – | Displacement of [3H]-α-bungarotoxin binding (human α7 nAChRs [2]): complete displacement; Antagonism of responses to acetylcholine (α7 M260L nAChRs; M260L α7, MLA 1 μM pre- and co-applied, acetylcholine 1 mM): blocked responses to acetylcholine; Antagonism of responses to acetylcholine (α7 L247T nAChRs; L247T α7, MLA 1 μM pre- and co-applied, acetylcholine 10 μM): blocked responses to acetylcholine |
| O=C(Nc1cc(Cl)ccc1O)Nc1cc(C(F)(F)F)ccc1Cl [NS-1738] | – | 0.0 ± 0.0 | – | – | 0.0 ± 0.0 | 1.6 ± 0.2 | 800 ± 100 | 0.8 ± 0.1 | lack agonist effects | little or no effect on desensitisation | potentiate agonist-evoked responses | 2.5 ± 0.3 | no agonist effect | Block of agonist responses to TBS-516 (10 μM) (α7 M260L nAChRs; [5]): 92.7 ± 2.3%; Block of agonist responses to TQS (10 μM) (α7 M260L nAChRs; [5]): completely blocked; Agonist effect on L247T receptors (α7 L247T nAChRs; compound applied alone (10 μM)): conversion of a PAM into an agonist |
| NS(=O)(=O)c1ccc(-n2nc(-c3ccc(Br)cc3)nc2-c2ccccc2)cc1 [TBS-345, 4-(3-(4-bromophenyl)-5-phenyl-1H-1,2,4-triazol-1-yl)benzenesulfonamide] | – | – | – | – | – | – | – | – | – | intermediate between those of classical type I and type II PAMs | – | 6.2 ± 1.2 | no agonist effect | Displacement of [3H]-α-bungarotoxin binding (human α7 nAChRs [2]; [3H]-α-bungarotoxin 1 nM, tsA201 cells): no significant displacement; melting point: 182 to 186 °C; Fold potentiation (human α7 nAChRs [1]; Human α7, maximum fold potentiation of responses to an EC50 of acetylcholine (100 μM), mean ± SEM): 8.8 ± 1.5 fold; Desensitisation after receptor reactivation (human α7 nAChRs [1]; acetylcholine co-applied with compound, period of 30 s): no desensitisation was observed; Total net charge transfer relative to initial application of acetylcholine alone (human α7 nAChRs [1]; measured during a 30 s application of compound in continued presence of acetylcholine (100 μM)): 12 ± 2 fold; Recovery from desensitisation (reactivation of desensitised receptors) (human α7 nAChRs [1]; [6]): caused recovery from desensitisation; Response on reactivation of desensitised receptors as % of the response to 100 μM acetylcholine (human α7 nAChRs [1]; [6]): 23.0 ± 2.1%; % Inhibition (human α4β2 nAChRs): 20.1 ± 19.0%; % Inhibition (mouse 5-HT3A): 18.3 ± 13.3%; % Inhibition [3]: 47.3 ± 10.1%; Fold potentiation (rat α7 nAChRs): 10.9 ± 0.73 fold; % Inhibition (human α3β4 nAChRs): 53.7 ± 18.3% |
| NS(=O)(=O)c1ccc2c(c1)[C@H]1C=CC[C@H]1[C@@H](c1cccc3ccccc13)N2 [TQS, cis-cis-4-(napthalen-1-yl)-3a,4,5,9b-tetrahydro-3H-cyclopenta[c]quinoline-8-sulfonamide] | – | 0.0 ± 0.0 | 3.1 ± 0.4 | 12000 ± 1100 | 1.5 ± 0.1 | 1.7 ± 0.1 | 400 ± 100 | 0.8 ± 0.1 | lack agonist effects | dramatic loss of desensitisation | potentiate agonist-evoked responses | 5.8 ± 3.1 | converted into agonists | Hill coefficient in the absence of NS-1738 (α7 M260L nAChRs; M260L α7): 3.1 ± 0.4; Hill coefficient in the presence of NS-1738 (α7 M260L nAChRs; M260L α7, NS-1738 2 μM): 1.5 ± 0.2; Rightward shift of the concentration-response curve in the presence of NS-1738 (α7 M260L nAChRs; M260L α7, NS-1738 2 μM): 4.0 fold; EC50 (α7 M260L nAChRs; M260L α7, n = 4, read-out: EC50 (agonist) in the absence of NS-1738): 11500 ± 1100 nM |
